Test results published in paper PMC8389037, “Design, Synthesis and Antifungal Activity of Stapled Aurein1.2 Peptides” (Antibiotics, 2021).
≈ marks a conversion by molar mass, not a printed value. Where a SMILES comes first, the peptide text is derived from it. Bridges are numbered along the chain shown (N, C = ends). [ ]: non-standard residue; d: D form. S5 = C=CCCC[C@](C)(N)C(=O)O

Assays:
[1] = test system: chymotrypsin; assay: Chymotrypsin digestion assay (proteolytic stability); details: chymotrypsin 10 ng/µL in PBS 50 mM, 2 mM CaCl2, pH 7.4, room temperature; 130 µL of 1 mM DMSO peptide stock + 910 µL enzyme; sampled 0, 0.5, 1.5, 2, 4.5 h; HPLC at 214 nm
Procedure: Their susceptibility toward chymotrypsin degradation was tested in pH 7.4 PBS buffer at room temperature, containing 2 mM of CaCl2, and the percentages of remaining peptides were determined by HPLC. […] The corresponding HPLC charts for the determination of peptide residues are in the Supplementary Material.
Figure 4 Proteolytic stability of Aurein1.2, Sau-1, Sau-2, Sau-5, and Sau-9. They were dissolved in chymotrypsin solution (10 ng/μL, 50 mM, containing 2 mM of CaCl2, pH = 7.4). The percentages of the remaining peptides were monitored by HPLC.
Aurein1.2, Sau-1, Sau-2, Sau-5, and Sau-9, were dissolved in dimethyl sulfoxide to prepare a reserve solution with a concentration of 1 mM. Chymotrypsin was dissolved in PBS buffer (50 mM, containing 2 mM of CaCl2, pH = 7.4) to obtain a final concentration of 10 ng/µL. Then the 130 µL peptide solutions were incubated with 910 µL of chymotrypsin solution at room temperature. Then 130 µL of digestion mixture was taken at 0, 0.5, 1.5, 2 or 4.5 h, and then quenched with 50 µL of hydrochloric acid (1 mM). High-performance liquid chromatography (HPLC) was used to detect the residues of linear peptides and stapled Aurein1.2 peptides at 214 nm at a different time.

[2] = test system: C. albicans SC5314; assay: microbe, parasite or virus in culture
Procedure: (§1) The in vitro antifungal activities of the target peptides were evaluated according to protocols from the CLSI. The broth microdilution method was used to determine the minimum inhibitory concentration (MIC) of the target peptides in 96-well plates. Fluconazole was used as a reference drug.
(§2) Clinical isolates of C. albicans SC5314, 901, 904, C. tropicalis ATCC20026 and clinical isolate 895, C. glabrata ATCC1182 and clinical isolate 896, C. krusei ATCC2340, and C. parapsilosis ATCC22010 are from the collection library in the Drug Discovery and Development Center, Naval Medical University, Shanghai, China. C. auris clinical isolates are provided by Linqi Wang (Institute of Microbiology, Chinese Academy of Sciences) and Changbin Chen (Institut Pasteur of Shanghai, Chinese Academy of Sciences). All strains were cultured in YPD (1% yeast extract, 2% peptone, and 2% glucose) liquid medium overnight at 30 °C with shaking at 220 rpm.
(§3) The MICs of chemicals against all strains were determined by the micro broth dilution method according to the Clinical and Laboratory Standards Institute (Wayne PA, Reference Method for Broth Dilution Antifungal Susceptibility Testing of yeasts, approved Standard M27-A3, 3 rd ed; Clinical and Laboratory Standards Institute (CLSI): USA, 2008). The initial concentration of fungal suspension in RPMI 1640 medium was 3–5 × 10^3 colonies forming unit (CFU)/mL, which was added to 96-well plates. Peptides were prepared in dimethyl sulfoxide (DMSO) with an initial stored concentration of 6.4 mg/mL. Serial dilutions were made based on the CLSI M27 guide to obtaining the final concentrations ranging from 0.125 to 64 μg/mL for fluconazole and 0.25 to 128 μg/mL for peptides […]. The plates were incubated at 30 °C for 48 h. Optical density was measured at 630 nm, and background optical densities were subtracted from that of each well. The definition of MIC is the lowest concentration at which 80% of tested strains cannot grow.

[3] = test system: C. parapsilosis ATCC 22010; assay: microbe, parasite or virus in culture
Procedure: as §1, §2, §3

[4] = test system: C. albicans 904; assay: microbe, parasite or virus in culture
Procedure: as §1, §2, §3

[5] = test system: C. glabrata ATCC 1182; assay: microbe, parasite or virus in culture
Procedure: as §1, §2, §3

[6] = test system: C. auris 919; assay: microbe, parasite or virus in culture
Procedure: as §1, §2, §3

[7] = test system: C. tropicalis ATCC 20026; assay: microbe, parasite or virus in culture
Procedure: as §1, §2, §3

[8] = test system: C. krusei ATCC 2340; assay: microbe, parasite or virus in culture
Procedure: as §1, §2, §3

[9] = test system: C. albicans 901; assay: microbe, parasite or virus in culture
Procedure: as §1, §2, §3

[10] = test system: C. auris 918; assay: microbe, parasite or virus in culture
Procedure: as §1, §2, §3

[11] = test system: C. glabrata 896; assay: microbe, parasite or virus in culture
Procedure: as §1, §2, §3

[12] = test system: C. tropicalis 895; assay: microbe, parasite or virus in culture
Procedure: as §1, §2, §3

[13] = Helicity by circular dichroism; type: physicochemical; details: CD, 50 μM peptide in phosphate buffer/trifluoroethanol (7:3), 20 °C, calculated on [θ]222
Procedure: We use circular dichroism (CD) spectroscopy to probe the structural changes of Aurein1.2. According to the formula for calculating the helix reported in the previous relevant literature, we calculated the helicities of Aurein1.2 and the stapled peptides.
Figure 3 CD spectra of Aurein1.2 and its analogues. The peptides were dissolved in a solution of phosphate buffer and trifluoroethanol (7:3) and reached a concentration of 50 μM. The helicities of these peptides were calculated on the [θ]222. TEXT PRINTED IN THE PICTURE: Aurein1.2: helicity: 56.6% | Sau-1: helicity: 60.2% | Sau-2: helicity: 52.5% | Sau-3: helicity: 72.3% | Sau-4: helicity: 73.5% | Sau-5: helicity: 61.0% | Sau-6: helicity: 49.9% | Sau-7: helicity: 65.0% | Sau-8: helicity: 83.1% | Sau-9: helicity: 67.8%
The linear peptide and the stapled Aurein1.2 peptides were dissolved to form a sample with a concentration of 50 μM. The solvent consists of phosphate-buffered solution and trifluoroethanol (7:3). We used a […] quartz tube to obtain CD spectra on a Jasco-715 spectrophotometer at 20 °C. The measurement parameters were set up as follows: wavelength, 190–255 nm; speed, 20 nm min^−1; step resolution, 1.0 nm. And we accumulated the data twice. All spectral data were subtracted from the background. […] The helicity of each peptide was calculated according to the equation in the literature.

| Compound | proteolytic stability, remaining peptide [1] | Minimum inhibitory concentration (MIC) ([2]; SC5314, 48 h) [µg/mL] | Minimum inhibitory concentration (MIC) ([3]; ATCC 22010, 48 h) [µg/mL] | Minimum inhibitory concentration (MIC) ([4]; 904, 48 h) [µg/mL] | Minimum inhibitory concentration (MIC) ([5]; ATCC 1182, 48 h) [µg/mL] | Minimum inhibitory concentration (MIC) ([6]; 919, 48 h) [µg/mL] | Minimum inhibitory concentration (MIC) ([7]; ATCC 20026, 48 h) [µg/mL] | Minimum inhibitory concentration (MIC) ([8]; ATCC 2340, 48 h) [µg/mL] | Minimum inhibitory concentration (MIC) ([9]; 901, 48 h) [µg/mL] | Minimum inhibitory concentration (MIC) ([10]; 918, 48 h) [µg/mL] | Minimum inhibitory concentration (MIC) ([11]; 896, 48 h) [µg/mL] | Minimum inhibitory concentration (MIC) ([12]; 895, 48 h) [µg/mL] | other results |
| --- | --- | --- | --- | --- | --- | --- | --- | --- | --- | --- | --- | --- | --- |
| CC[C@H](C)[C@@H]1NC(=O)[C@@](C)(NC(=O)[C@H](CC(=O)O)NC(=O)[C@H](Cc2ccccc2)NC(=O)[C@H](CC(C)C)NC(=O)CNC(C)=O)CCCC=CCCC[C@@](C)(C(=O)N[C@@H](C)C(=O)N[C@@H](CCC(=O)O)C(=O)N[C@@H](CO)C(=O)N[C@@H](Cc2ccccc2)C(N)=O)NC(=O)[C@H](CCCCN)NC(=O)[C@H](CCCCN)NC1=O [Sau-5] (Ac-GLFD[S5]IKK[S5]AESF-NH2; staple 5-9) | remain relatively stable over time | 16 (≈ 10.4 µM) | >128 | >128 | >128 | >128 | >128 | >128 | >128 | >128 | >128 | 16 (≈ 10.4 µM) | – |
| CC[C@H](C)[C@H](NC(=O)[C@H](CC(=O)O)NC(=O)[C@H](Cc1ccccc1)NC(=O)[C@H](CC(C)C)NC(=O)CNC(C)=O)C(=O)N[C@H](C(=O)N[C@@H](CCCCN)C(=O)N[C@@H](CCCCN)C(=O)N[C@@]1(C)CCCC=CCCC[C@@](C)(C(N)=O)NC(=O)[C@H](CO)NC(=O)[C@H](CCC(=O)O)NC(=O)[C@H](C)NC1=O)[C@@H](C)CC [Sau-9] (Ac-GLFDIIKK[S5]AES[S5]-NH2; staple 9-13) | – | >64 | >128 | >128 | >128 | >128 | >128 | >128 | >128 | >128 | >128 | 32 (≈ 21.2 µM) | – |
| Ac-GLFDIIKKIAESF-NH2 [reference compound] | disintegrated almost completely by 4.5 h | – | – | – | – | – | – | – | – | – | – | – | helicity [13]: 56.6%; Minimum inhibitory concentration (MIC) ([2]; C. albicans SC5314, RPMI 1640, 3–5 × 10^3 CFU/mL, 30 °C, 48 h, OD 630 nm, 80% inhibition): >64 µg/mL; Minimum inhibitory concentration (MIC) ([3]; C. parapsilosis ATCC 22010, RPMI 1640, 30 °C, 48 h, OD 630 nm, 80% inhibition): >128 µg/mL; Minimum inhibitory concentration (MIC) ([4]; C. albicans 904, RPMI 1640, 30 °C, 48 h, OD 630 nm, 80% inhibition): >128 µg/mL; Minimum inhibitory concentration (MIC) ([5]; C. glabrata ATCC 1182, RPMI 1640, 30 °C, 48 h, OD 630 nm, 80% inhibition): >128 µg/mL; Minimum inhibitory concentration (MIC) ([6]; C. auris clinical isolate 919, RPMI 1640, 30 °C, 48 h, OD 630 nm, 80% inhibition): >128 µg/mL; Minimum inhibitory concentration (MIC) ([7]; C. tropicalis ATCC 20026, RPMI 1640, 30 °C, 48 h, OD 630 nm, 80% inhibition): >128 µg/mL; Minimum inhibitory concentration (MIC) ([8]; C. krusei ATCC 2340, RPMI 1640, 30 °C, 48 h, OD 630 nm, 80% inhibition): >128 µg/mL; Minimum inhibitory concentration (MIC) ([9]; C. albicans 901, fluconazole-resistant clinical isolate, RPMI 1640, 30 °C, 48 h, OD 630 nm, 80% inhibition): >128 µg/mL; Minimum inhibitory concentration (MIC) ([10]; C. auris clinical isolate 918, RPMI 1640, 30 °C, 48 h, OD 630 nm, 80% inhibition): >128 µg/mL; Minimum inhibitory concentration (MIC) ([11]; C. glabrata clinical isolate 896, RPMI 1640, 30 °C, 48 h, OD 630 nm, 80% inhibition): >128 µg/mL; Minimum inhibitory concentration (MIC) ([12]; C. tropicalis 895, fluconazole-resistant clinical isolate, RPMI 1640, 30 °C, 48 h, OD 630 nm, 80% inhibition): >128 µg/mL |
